Results on 19 compounds are retold here after patent publication US7713994B2 (Wyeth LLC, priority 2005, dated 2010).

In one series the test system is BT474. Kind of series: Cytotoxicity assay (SRB), BT474. It counts as cell-based. In a few lines: (§1)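 Seeding: BT474 12000, HCT-116 4000, LoVo 6000, MCF-7 6000 cells/well; overnight attachment, 37 °C, 7% CO2. Drug exposure 3 d (BT474 6 d), RPMI 1640 + 5% FBS. Readout: TCA fix, 0.4% SRB, Tris solubilisation, A540.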
The subject of the next series is LoVo. Kind of series: Cytotoxicity assay (SRB), LoVo. It counts as cell-based. As to conditions: Homo sapiens, LoVo, 72 h, LoVo cells, SRB, read-out: In Vitro Cellular Activity IC50 LOVO. In a few lines: as §1
A further series deals with T1, cyclin B/CDK1 enzyme (Homo sapiens, UniProt P06493).
T1 construct: purchased New England BioLabs; host or cells: Sf9 insect cells, recombinant baculovirus
Kind of series: CDK1 ELISA kinase assay (phospho-Rb ser 795 detection). The class given is biochemical. The conditions noted are these: In Vitro Enzyme Assays, read-out: CDK1 IC50. A digest of the protocol:
(§2)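 ELISA format: plate-bound GST-Rb, 200 μM ATP, Sf9 cyclin/CDK enzyme, 1 h at 30° C; then anti-pRb Ser795 primary overnight at 4° C, HRP secondary, TMB. IC50 after no-substrate background subtraction.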
On the technique in general: In an ELISA, binding on a coated surface is turned into a signal by an enzyme label.

Another series concerns the target T2, cyclin D1/cdk 4 enzyme (Homo sapiens, UniProt P11802).
T2 construct: made in house; host or cells: Sf9 insect cells, recombinant baculovirus
Kind of series: CDK4 ELISA kinase assay (phospho-Rb ser 795 detection). The class given is biochemical. As to conditions: In Vitro Enzyme Assays, 200 μM ATP, read-out: CDK4 IC50. In a few lines: as §2

For another series, the system named is HCT-116. The series can be described thus: Cytotoxicity assay (SRB), HCT-116. The class given is cell-based. As to conditions: Homo sapiens, HCT-116, 72 h, HCT116 cells, SRB, read-out: In Vitro Cellular Activity IC50 HCT116. A digest of the protocol:
as §1

A further series relates to MCF-7. Kind of series: Cytotoxicity assay (SRB), MCF-7. It counts as cell-based. As to conditions: Homo sapiens, MCF7, 72 h, MCF-7 cells, SRB, read-out: In Vitro Cellular Activity IC50 MCF-7. In a few lines: as §1
The mark [1] stands for this setting: Homo sapiens, BT-474, 144 h, BT474 cells, SRB, 6 days; read-out: In Vitro Cellular Activity IC50 BT474.
[2] abbreviates: Homo sapiens, BT-474, 144 h, BT474 cells, 6 days, SRB; read-out: In Vitro Cellular Activity IC50 BT474.

Structures are written as SMILES. Like-named read-outs stand apart in the source and are kept apart here.

T1 sequence (P06493 whole entry): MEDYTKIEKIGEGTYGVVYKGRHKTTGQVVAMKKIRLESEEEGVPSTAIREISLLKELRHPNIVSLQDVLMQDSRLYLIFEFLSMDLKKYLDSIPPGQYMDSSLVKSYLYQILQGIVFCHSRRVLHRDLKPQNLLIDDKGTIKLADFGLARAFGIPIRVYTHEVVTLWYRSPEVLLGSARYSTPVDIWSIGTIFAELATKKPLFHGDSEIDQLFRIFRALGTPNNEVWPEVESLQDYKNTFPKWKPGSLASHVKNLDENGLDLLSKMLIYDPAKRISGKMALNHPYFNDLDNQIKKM
T1 sequence (P14635 whole entry partner): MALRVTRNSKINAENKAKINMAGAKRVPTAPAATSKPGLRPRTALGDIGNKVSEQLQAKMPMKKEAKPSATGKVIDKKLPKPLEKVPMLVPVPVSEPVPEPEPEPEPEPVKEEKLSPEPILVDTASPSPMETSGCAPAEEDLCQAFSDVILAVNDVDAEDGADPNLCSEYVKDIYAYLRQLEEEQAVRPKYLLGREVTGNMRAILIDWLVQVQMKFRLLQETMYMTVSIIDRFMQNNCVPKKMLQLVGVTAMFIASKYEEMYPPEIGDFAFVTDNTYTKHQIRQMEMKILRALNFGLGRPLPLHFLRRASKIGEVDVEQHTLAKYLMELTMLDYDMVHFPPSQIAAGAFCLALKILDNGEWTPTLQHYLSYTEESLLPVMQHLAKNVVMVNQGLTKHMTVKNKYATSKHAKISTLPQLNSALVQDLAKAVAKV
T2 sequence (P11802 whole entry, species assumed): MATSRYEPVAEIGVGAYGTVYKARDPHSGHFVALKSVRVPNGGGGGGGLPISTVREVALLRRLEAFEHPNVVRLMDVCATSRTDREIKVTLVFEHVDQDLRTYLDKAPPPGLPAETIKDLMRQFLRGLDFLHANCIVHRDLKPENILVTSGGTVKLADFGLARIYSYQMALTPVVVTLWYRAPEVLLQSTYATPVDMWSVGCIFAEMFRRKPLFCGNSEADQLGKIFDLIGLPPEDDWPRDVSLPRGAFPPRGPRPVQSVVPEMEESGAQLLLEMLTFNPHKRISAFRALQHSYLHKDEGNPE
T2 sequence (P24385 whole entry partner, species assumed): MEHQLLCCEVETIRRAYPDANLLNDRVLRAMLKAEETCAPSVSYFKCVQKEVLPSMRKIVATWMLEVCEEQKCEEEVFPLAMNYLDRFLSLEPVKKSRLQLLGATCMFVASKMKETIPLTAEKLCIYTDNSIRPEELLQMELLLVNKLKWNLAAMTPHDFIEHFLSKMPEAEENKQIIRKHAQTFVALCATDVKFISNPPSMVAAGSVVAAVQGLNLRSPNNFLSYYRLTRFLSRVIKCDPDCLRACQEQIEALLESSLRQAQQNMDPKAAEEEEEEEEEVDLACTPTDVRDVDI

`CN1CCN(c2ccc(N/C=C3\C(=O)NC(=O)c4ccc(-c5ccoc5)cc43)cn2)CC1` [Example 249, (4Z)-6-(3-Furyl)-4-({[6-(4-methylpiperazin-1-yl)pyridin-3-′yl]amino}methylene)isoquinoline-1,3(2H,4H)-dione] had a melting point of 200 to 201 °C. For the same compound, the half-inhibitory concentration (IC50) in the series with BT474 (setting [1]) turned out to be 2 µM. Besides, the IC50 in the series on LoVo (three days) was 2.4 µM. The IC50 at cyclin B/CDK1 enzyme was > 50 µM.
The compound `O=C1NC(=O)c2ccc(-c3ccc(O)cc3)cc2/C1=C/Nc1ccc(CN2CCCCC2)cc1` [Example 103] came in with a melting point of 244 to 245 °C. Besides, in the series with BT474 (setting [1]), the IC50 was determined as 3.7 µM. Also, the IC50 with LoVo (three days) came to 2.3 µM. Besides, the half-maximal inhibitory concentration (IC50) on cyclin D1/cdk 4 enzyme amounted to 41 nM. Also, the 50% inhibitory concentration (IC50) on cyclin B/CDK1 enzyme is > 50 µM.
`CCCOc1ccc(CN/C=C2\C(=O)NC(=O)c3ccc(I)cc32)nc1O` [Example 510, 4-{[(6-Hydroxy-5-propoxy-pyridin-2-ylmethyl)-amino]-methylene}-6-iodo-4H-isoquinoline-1,3-dione]: the melting point was 275 to 281 °C (dec.). Further, the IC50 in the series with BT474 (setting [2]) was 0.16 µM. Further, the half-inhibitory concentration (IC50) in the series on HCT-116 (3 days) came out at 0.67 µM. Further, the half-maximal inhibitory concentration (IC50) in the series with LoVo (3 days) came out at 0.42 µM. Also, in the series with MCF-7 (3 days), the concentration for half-maximal inhibition (IC50) amounted to 1.4 µM.
As for `O=C1NC(=O)c2ccc(-n3cccc3)cc2/C1=C/Nc1ccc(Br)cn1` [Example 444, (Z)-4-((5-Bromopyridin-2-ylamino)methylene)-6-(1H-pyrrol-1-yl)isoquinoline-1,3(2H,4H)-dione], the melting point was 317 to 318 °C (dec.). Further, the IC50 in the series on BT474 (setting [2]) came to 5.2 µM. Further, the 50% inhibitory concentration (IC50) in the series on HCT-116 (3 days) came to 3.2 µM. Also, in the series on LoVo (3 days), the IC50 was determined as 5 µM. Moreover, the IC50 in the series on MCF-7 (3 days) was 8.9 µM.
The compound `O=C1NC(=O)c2ccc(-c3ccccc3)cc2/C1=C/Nc1ccc(CN2CCCCC2)cc1` [Example 95] came in with a melting point of 214 to 215 °C. Also, the concentration for half-maximal inhibition (IC50) in the series with BT474 (setting [1]) is 3 µM. Also, the half-maximal inhibitory concentration (IC50) in the series on LoVo (three days) was found to be 3.7 µM. In addition, on cyclin B/CDK1 enzyme, the 50% inhibitory concentration (IC50) is > 50 µM.
Compound `O=C1NC(=O)c2ccc(Br)cc2/C1=C/NCCc1c[nH]c2ccccc12` [Example 43, (4Z)-6-Bromo-4-({[2-(1H-indol-3-yl)ethyl]amino}methylene)isoquinoline-1,3(2H,4H)-dione] came in with a melting point of 278 to 280 °C. For the same compound, the 50% inhibitory concentration (IC50) with BT474 (setting [1]) came to 41 µM. Besides, in the series with HCT-116 (three days), the half-maximal inhibitory concentration (IC50) was 26 µM. In addition, the IC50 in the series on LoVo (three days) is > 50 µM. In addition, the half-maximal inhibitory concentration (IC50) in the series with MCF-7 (three days) is > 50 µM.
`Cc1nn(-c2ccc(NC=C3C(=O)NC(=O)c4ccc(Br)cc43)cc2)c(C)c1Cl` [Example 348, 6-Bromo-4-{[4-(4-chloro-3,5-dimethyl-pyrazol-1-yl)-phenylamino]-methylene}-4H-isoquinoline-1,3-dione] came in with a melting point of 290 to 291 °C. Also, the half-maximal inhibitory concentration (IC50) with BT474 (setting [1]) worked out at 6.1 µM. Besides, the IC50 with HCT-116 (three days) was found to be 2.6 µM. The IC50 in the series with LoVo (three days) came to 1.8 µM. Moreover, the IC50 in the series with MCF-7 (three days) turned out to be 5.1 µM.
For `C[C@@H]1CN(c2ccc(N/C=C3\C(=O)NC(=O)c4ccc(Br)cc43)cc2F)C[C@H](C)N1` [Example 318, (4Z)-6-Bromo-4-[({4-[(3R,5S)-3,5-dimethylpiperazin-1-yl]-3-fluorophenyl}amino)methylene]isoquinoline-1,3(2H,4H)-dione], in that order: 168 to 169 °C, 1.9 µM, 1.3 µM, 1.5 µM and 2.5 µM.
The like results for `O=C1NC(=O)c2ccc(Br)cc2/C1=C/NCc1ccc(Cl)cc1` [Example 53, (4Z)-6-Bromo-4-{[(4-chlorobenzyl)amino)methylene}isoquinoline-1,3(2H,4H)-dione] were, in that order, 234 to 235 °C, 37 µM, 32 µM, > 50 µM and > 50 µM.
For `CCOC(=O)C1(C(=O)OCC)Oc2ccc(CN/C=C3\C(=O)NC(=O)c4ccc(Br)cc43)cc2O1` [Example 179, (Z)-Diethyl 5-(((6-bromo-1,3-dioxo-2,3-dihydroisoquinolin-4(1H)-ylidene)methylamino)methyl)benzo[d][1,3]dioxole-2,2-dicarboxylate], in that order: 222 to 223 °C, 17 µM, 34 µM, 20 µM and 30 µM.
Compound `COC[C@H]1CCCN1c1ccc2c(c1)/C(=C/Nc1ccc(CN3CCCCC3)cc1)C(=O)NC2=O` [Example 121, (4Z)-6-[(2R)-2-(Methoxymethyl)pyrrolidin-1-yl]-4-({[4-(piperidin-1-ylmethyl)phenyl]amino}methylene)isoquinoline-1,3(2H,4H)-dione] came in with a melting point of 135 to 136 °C. In the series with BT474 (setting [1]), the IC50 was 7.7 µM. Also, in the series with HCT-116 (three days), the IC50 came out at 5.5 µM. For the same compound, the IC50 in the series on LoVo (three days) was 3.8 µM. Moreover, in the series with MCF-7 (three days), the half-maximal inhibitory concentration (IC50) worked out at 4.6 µM.
For the compound `O=C1NC(=O)c2ccc(Br)cc2C1=CNCc1cc(=O)c(O)co1` [Example 313, 6-Bromo-4-{[(5-hydroxy-4-oxo-4H-pyran-2-ylmethyl)-amino]-methylene}-4H-isoquinoline-1,3-dione], the melting point was 293 to 297 °C (dec.). The IC50 with BT474 (setting [1]) was 43 µM. In addition, in the series with HCT-116 (three days), the IC50 is 27 µM. Further, in the series with LoVo (three days), the IC50 came to 41 µM. Moreover, the IC50 in the series with MCF-7 (three days) was found to be 22 µM.
The compound `COc1ccc(CN/C=C2\C(=O)NC(=O)c3ccc(Br)cc32)cc1OC(C)=O` [Example 57, 5-({[(Z)-(6-Bromo-1,3-dioxo-2,3-dihydroisoquinolin-4(1H)-ylidene)methyl]amino}methyl)-2-methoxyphenyl acetate] registered a melting point of 226 to 227 °C. For the same compound, the concentration for half-maximal inhibition (IC50) with BT474 (setting [1]) is 3.7 µM. The half-inhibitory concentration (IC50) in the series with HCT-116 (three days) worked out at 9.6 µM. For the same compound, the IC50 in the series on LoVo (three days) amounted to 5.2 µM. Also, the concentration for half-maximal inhibition (IC50) in the series with MCF-7 (three days) was > 50 µM.
For `O=C1NC(=O)c2ccc(I)cc2/C1=C/Nc1ccc(OCc2ccccn2)cc1` [Example 247], in that order: 265 to 266 °C, 35 µM, 18 µM, > 50 µM and > 50 µM.
The like results for `O=C1NC(=O)c2ccc(Br)cc2/C1=C/NCc1ccc(NC(=O)C2CC2)c(OC(=O)C2CC2)c1` [Example 185, 5-({[(Z)-(6-Bromo-1,3-dioxo-2,3-dihydroisoquinolin-4(1H)-′cyclopropanecarboxylate ′ylidene)methyl]amino}methyl)-2-[(cyclopropylcarbonyl)amino]phenyl] were, in that order, 245 to 246 °C, 0.87 µM, 2.8 µM, 2.7 µM and > 50 µM.
For `O=C1NC(=O)c2ccc(Br)cc2/C1=C/Nc1ccc(CN2CCSC2)cc1` [Example 281, (4Z)-6-Bromo-4-({[4-(1,3-thiazolidin-3-ylmethyl)phenyl]amino}methylene)isoquinoline-1,3(2H,4H)-dione], in that order: 224 to 225 °C, 44.3 µM, 20 µM, 12 µM and 19 µM.
As for `COc1ccc(CN/C=C2\C(=O)NC(=O)c3cc(Br)ccc32)cc1O` [Example 135, (4Z)-7-Bromo-4-{[(3-hydroxy-4-methoxybenzyl)amino]methylene}isoquinoline-1,3(2H,4H)-dione], the melting point was in the range of 297 to 298 °C. Besides, the IC50 with BT474 (setting [1]) was > 50 µM. Further, the IC50 in the series on HCT-116 (three days) was determined as 31 µM. For the same compound, the IC50 with LoVo (three days) was > 50 µM. Also, the concentration for half-maximal inhibition (IC50) with MCF-7 (three days) is > 50 µM.
`CC(C)N1CCN(c2ccc(N/C=C3\C(=O)NC(=O)c4ccc(Br)cc43)nc2)CC1` [Example 486, (4Z)-6-Bromo-4-({[5-(4-isopropylpiperazin-1-yl)pyridin-2-yl]amino}methylene)isoquinoline-1,3(2H,4H)-dione] came in with a melting point of 223 to 224 °C. Also, the 50% inhibitory concentration (IC50) in the series on BT474 (setting [2]) came to 3.61 µM. In the series with HCT-116 (3 days), the half-maximal inhibitory concentration (IC50) was 7.49 µM. For the same compound, the IC50 in the series on LoVo (3 days) is 7.56 µM. For the same compound, the IC50 in the series with MCF-7 (3 days) amounted to 10 µM.
On to `N#Cc1ccc2c(c1)/C(=C/Nc1ccc(CN3CCCCC3)cc1)C(=O)NC2=O` [Example 110, (4Z)-1,3-Dioxo-4-({[4-(piperidin-1-ylmethyl)phenyl]amino}methylene)1,2,3,4-tetrahydroisoquinoline-6-carbonitrile], for which the melting point was 254 to 256 °C (dec.). Moreover, the IC50 in the series with BT474 (setting [1]) came to 3.5 µM. The IC50 in the series with HCT-116 (three days) is 1.6 µM. For the same compound, the IC50 in the series on LoVo (three days) was found to be 2.5 µM. Besides, in the series on MCF-7 (three days), the IC50 was 5.8 µM.

The IC50 is the midpoint of a concentration-inhibition curve. The term melting point denotes the temperature, or range, at which the solid turns liquid.
